Data from patent publication US7262269B2, “Method for screening combinational bead library; ligands for cancer cells” (The Regents of University of California, priority 2001, dated 2007).

Columns and labels:
[1] = system: epithelial ovarian cancer cell line OVCAR-3; test: cell-growth-on-bead assay, OVCAR-3; assay type: cell-based, human; conditions: Example 4, cX2GX4GX6X7c library, peptide concentration on bead surface 20% of Example 3
Experimental: (§1) The ratio of cells to beads is preferably about 10:1, but can range from about 1:1 to 100:1. The suspension of cells 10 and beads 12 is mixed gently for sufficient time to assure contact of beads 12 with suspended cells 10. The culture plates are incubated in a tissue culture incubator at about 4° C. to about 37° C., preferably 37° C., for a period of about 24 to about 72 hours. The suspension of cells 10 and beads 12 may be kept still or mixed, either continuously or intermittently, during the incubation period.
After the incubation period, beads 12 are observed under a dissecting microscope. […] These beads 14 (referred to as “positive” beads) are removed from the culture plates. A tetrazolium dye that stains live, but not dead, cells can be used to facilitate the identification and removal of the positive beads. If a dye is used, all of the beads are removed after the incubation period and resuspended in fresh medium in new culture plates. The dye is added. The plates are then incubated in a tissue culture incubator at 25° C. to 37° C. for about one to four hours. Live cells 10 convert the dye to a colored metabolite, which results in beads 14 with attached cells appearing colored, allowing them to be easily distinguished from beads 16 without attached cells, which appear colorless, as shown in FIG. 1E. Other dyes that stain live cells can also be used. After positive beads 14 are removed from the plates, attached cells 10 are separated from the beads. This can be done with the addition of a chaotrophic agent, such as 8 M guanidine hydrochloride, or a protease, such as trypsin.
About 150,000 peptide beads were mixed with approximately one million suspended cells in 15 ml of culture medium and distributed into six 3-cm culture plates. The culture plates were agitated gently at about 100 rpm for about 10 minutes. The culture plates were then incubated in a tissue culture incubator at 37° C. for about 24 hours to about 72 hours.
A dissecting microscope was used to examine the beads at about 24, 48, and 72 hours. After about 24 to 72 hours, beads with a monolayer of cells were observed.
At the end of the incubation period, all of the beads were removed and resuspended in fresh medium in a new culture plate. An MTT ([3-(4,5-dimethylthiazol-2-yl)-2,5-diphenyl] tetrazolium bromide) (Sigma, St. Louis, Mo.) dye solution was added to each culture plate to a final concentration of 0.5 mg/ml. The plates were incubated in a tissue culture incubator at 37° C. for about two hours to allow the purple color to develop. Each purple-colored peptide bead was isolated and removed. The attached cells were separated from the beads with 8 M guanidine hydrochloride.
The amino acid sequence of each isolated peptide bead was determined using an automated Procise 494 protein sequencer (Applied Biosystems, Foster City, Calif.). Several consensus peptide sequences were determined, one of which was cNGRGEQc. This peptide was resynthesized on beads, which were then rescreened with the A549 cells using the assay of the invention.
The method as described in Example 1 was performed, except that a different combinatorial library was used and different types of epithelial cancer cells were used. The peptide library of Example 3 was used, except that the concentration of peptides on the surface of each bead was 20% of that used in Example 3, resulting in an increase in screening stringency.
The peptide library was screened with one of the following epithelial ovarian cancer cell lines: CaOV3, SKOV-3, ES-2 and OVCAR-3 (American Type Culture Collection).
As described in Example 1, after culturing for about 24 to 72 hours, beads with a monolayer of cells were observed. These positive beads were isolated and the amino acid sequence of each positive bead was determined, as described in Example 1.

[2] = system: non-small-cell lung cancer cell line, A549; test: cell-growth-on-bead assay, A549; assay type: cell-based, human; conditions: peptide resynthesized on beads, rescreened with A549 cells
Experimental: The cell-growth-on-bead assay includes the following steps. A one-bead-one-compound combinatorial library is prepared. The library is preferably synthesized using the “split synthesis” approach described in Lam et al., “A new type of synthetic peptide library,” 82-84. The compounds of the library may be small molecules, peptides, or other types of molecules. An example of a suitable library is a peptide library containing cXXXXXXc peptides, where “c” is D-cysteine which provides intramolecular cyclization by disulfide bonding, and “X” is any L, D, unnatural, or modified amino acid. A suitable solid phase support, such as beads or discs made of polystyrene, agarose, acrylamide, glass, plastic, or paramagnetic substances, is used. Polystyrene beads have been found satisfactory. A standard synthetic solid phase peptide synthesis method, such as fluorenylmethyoxycarbonyl (Fmoc) chemistry or t-butyloxycarbonyl (Boc) chemistry, is used. […]
The chemical structure of the compound (i.e. ligand) on each isolated positive bead 14 is then determined. If the combinatorial library used was a peptide library, then the amino acid sequence of the ligand is preferably determined with an automated protein sequencer, such as the Procise 494 (Applied Biosystems, Foster City, Calif.). Alternatively, the peptide can be released via a cleavable linker and the amino acid sequence determined by mass spectroscopy. […]

[3] = system: non-malignant bronchoepithelial cell line, HBE-1; test: cell-growth-on-bead assay, HBE-1; assay type: cell-based; conditions: HBE-1 cells
Experimental: as §1
After the incubation period, beads 12 are observed under a dissecting microscope. […] These beads 14 (referred to as “positive” beads) are removed from the culture plates. A tetrazolium dye that stains live, but not dead, cells can be used to facilitate the identification and removal of the positive beads. If a dye is used, all of the beads are removed after the incubation period and resuspended in fresh medium in new culture plates. The dye is added. The plates are then incubated in a tissue culture incubator at 25° C. to 37° C. for about one to four hours. Live cells 10 convert the dye to a colored metabolite, which results in beads 14 with attached cells appearing colored, allowing them to be easily distinguished from beads 16 without attached cells, which appear colorless, as shown in FIG. 1E. Other dyes that stain live cells can also be used. […]

Substance | identified as ligand (positive bead with monolayer of cells) [1] | beads with this sequence exhibiting cell attachment and growth on their surfaces [2] | peptide beads on which cell growth was observed [3] [%]
c-Nle-G-Nle-G-Tyr(3-NO2)-L-c | identified |  | 
c-Tyr(3-NO2)-G-F-G-(Pal-3D)-HoSer-c | identified |  | 
c-d-G-HoCit-G-T-Nva-c | identified |  | 
c-d-G-Nle-G-1-G-c | identified |  | 
c-d-G-Phe(3-C l)-G-T-Y-c | identified |  | 
c-d-G-Tyr(3-NO2)-G-Aic-Q-c | identified |  | 
cNGRGEQc |  | Virtually all | 10
